In US11524944B2, “2-phenylpyrimidine-4-carboxamides as AHR inhibitors” (Bayer Aktiengesellschaft, priority 2017, dated 2022):
Values joined by “and” are separate entries in the source; they are usually repeats but may differ in a detail not shown here. Identical values can stand only once.

Tests used:
Mouse AhR = biological target: T1, Mouse AhR (Mus musculus, UniProt P30561); assay: Transactivation assay in mouse cell line (in vitro assay 2): antagonism; format: cell-based; conditions: Hepa 1c1c7 cells, AHR inducible firefly luciferase reporter (DRE), 200 μM kynurenic acid, 20 hours
T1 sequence (P30561 1-848 P471L/N533S/M589L): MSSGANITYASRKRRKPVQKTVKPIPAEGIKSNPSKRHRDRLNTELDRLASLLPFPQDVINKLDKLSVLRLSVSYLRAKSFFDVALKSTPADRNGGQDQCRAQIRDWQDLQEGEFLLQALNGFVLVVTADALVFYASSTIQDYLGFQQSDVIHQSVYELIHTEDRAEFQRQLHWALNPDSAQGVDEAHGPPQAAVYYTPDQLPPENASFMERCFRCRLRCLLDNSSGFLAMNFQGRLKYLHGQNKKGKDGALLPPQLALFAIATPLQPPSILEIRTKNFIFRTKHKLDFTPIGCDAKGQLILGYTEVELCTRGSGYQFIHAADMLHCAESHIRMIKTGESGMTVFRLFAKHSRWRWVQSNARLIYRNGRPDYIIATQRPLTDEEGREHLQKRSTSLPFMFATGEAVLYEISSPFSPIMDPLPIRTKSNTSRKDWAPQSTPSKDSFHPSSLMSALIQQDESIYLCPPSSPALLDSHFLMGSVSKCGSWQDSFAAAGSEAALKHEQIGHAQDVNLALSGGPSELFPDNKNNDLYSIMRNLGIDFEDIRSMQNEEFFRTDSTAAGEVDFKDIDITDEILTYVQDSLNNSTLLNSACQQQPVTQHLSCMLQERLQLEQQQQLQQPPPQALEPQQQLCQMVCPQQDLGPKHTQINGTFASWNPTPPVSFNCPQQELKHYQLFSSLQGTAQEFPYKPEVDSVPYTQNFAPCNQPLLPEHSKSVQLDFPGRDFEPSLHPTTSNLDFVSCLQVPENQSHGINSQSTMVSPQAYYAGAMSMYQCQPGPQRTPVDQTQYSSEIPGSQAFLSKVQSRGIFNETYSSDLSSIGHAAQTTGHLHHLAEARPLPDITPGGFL
Experimental: Examples were tested in selected biological assays one or more times. When tested more than once, data are reported as either average values or as median values, wherein • the average value, also referred to as the arithmetic mean value, represents the sum of the values obtained divided by the number of times tested, and • the median value represents the middle number of the group of values when ranked in ascending or descending order. If the number of values in the data set is odd, the median is the middle value. If the number of values in the data set is even, the median is the arithmetic mean of the two middle values.
Transactivation Assay in Mouse Cell Line (In Vitro Assay 2)
Transactivation assay was carried out in Hepa 1c1c7 cells (ATCC #CRL-2026) endogenously expressing AHR. In addition the cells were stably transfected with an AHR inducible firefly luciferase reporter gene construct that carried AHR-binding sites (DRE) in its promoter. Kynurenic acid is an endogenous AHR activating ligand and was used to prestimulate test cells prior to testing the antagonistic properties of compounds.
In Vitro Assay 2: Antagonism in Mouse Cell Line
Firefly luciferase activity was determined by the SteadyGlo Luciferase Assay System (Promega, #E2550).

Human AhR = biological target: T2, Human AhR (Homo sapiens, UniProt P35869); assay: Transactivation assay in human cell line (in vitro assay 1): antagonism; format: cell-based; conditions: U87 glioblastoma cells, AHR inducible firefly luciferase reporter (DRE), 150 μM kynurenic acid, 20 hours
T2 construct: host or cells: U87 glioblastoma cells, stably transfected with a DRE firefly luciferase reporter and a constitutive renilla reporter
T2 sequence (P35869 11-848): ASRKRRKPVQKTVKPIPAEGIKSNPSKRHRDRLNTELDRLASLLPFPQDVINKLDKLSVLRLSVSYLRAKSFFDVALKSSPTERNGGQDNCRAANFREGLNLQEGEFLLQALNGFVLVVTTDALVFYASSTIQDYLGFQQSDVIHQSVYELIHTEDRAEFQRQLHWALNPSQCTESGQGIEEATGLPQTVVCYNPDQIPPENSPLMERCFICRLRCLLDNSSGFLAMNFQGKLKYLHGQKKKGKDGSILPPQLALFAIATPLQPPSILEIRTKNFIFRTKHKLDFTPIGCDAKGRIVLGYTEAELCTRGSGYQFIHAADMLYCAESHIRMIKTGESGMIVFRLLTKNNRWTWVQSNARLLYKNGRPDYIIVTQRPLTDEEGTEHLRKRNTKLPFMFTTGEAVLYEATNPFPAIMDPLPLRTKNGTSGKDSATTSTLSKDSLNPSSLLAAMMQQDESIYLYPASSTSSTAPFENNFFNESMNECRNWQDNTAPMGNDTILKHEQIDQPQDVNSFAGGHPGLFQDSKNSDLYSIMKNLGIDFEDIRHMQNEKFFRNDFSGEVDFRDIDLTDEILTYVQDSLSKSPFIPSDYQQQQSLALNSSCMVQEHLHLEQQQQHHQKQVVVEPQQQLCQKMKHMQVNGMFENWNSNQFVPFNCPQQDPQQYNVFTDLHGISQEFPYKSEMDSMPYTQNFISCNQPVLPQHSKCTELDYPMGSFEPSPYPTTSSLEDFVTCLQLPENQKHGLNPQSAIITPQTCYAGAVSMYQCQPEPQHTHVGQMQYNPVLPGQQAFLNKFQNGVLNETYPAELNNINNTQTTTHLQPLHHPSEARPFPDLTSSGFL
Summary of the method: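 U87 glioblastoma cells with endogenous AHR, stably transfected with a DRE-driven firefly luciferase reporter and a constitutive Renilla reporter. Cells prestimulated with kynurenic acid before compound addition. Dual luciferase read-out, with Renilla signal used to flag toxicity.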

| IC50 (Mouse AhR) | IC50 (Human AhR) [nM] | Compound |
| --- | --- | --- |
| 191 nM | 29.5 | Cc1cc(F)cc(-c2nc(C(=O)N[C@@H](C)CO)cc(-c3ccc(OC(F)(F)F)cc3)n2)c1 [Example 41, 2-(3-fluoro-5-methylphenyl)-N-[(2S)-1-hydroxypropan-2-yl]-6-[4-(trifluoromethoxy)phenyl]pyrimidine-4-carboxamide] |
| > 20000 nM and 17900 nM | > 20000 | C[C@@H](CO)NC(=O)c1cc(-c2ccc(OC(F)(F)F)cc2)nc(-c2ccc(OC(F)(F)F)cc2)n1 [Example 12, N-[(2S)-1-hydroxypropan-2-yl]-2,6-bis[4-(trifluoromethoxy)phenyl]pyrimidine-4-carboxamide] |
| 17.8 nM | 12.2 | C[C@H](CO)NC(=O)c1cc(-c2ccc(OC(F)(F)F)cc2)nc(-c2cccc(F)c2)n1 [Example 6, 2-(3-Fluorophenyl)-N-[(2R)-1-hydroxypropan-2-yl]-6-[4-(trifluoromethoxy)phenyl]pyrimidine-4-carboxamide] |
| 2.37 nM | 5.3 | CC(NC(=O)c1cc(-c2ccc(OC(F)(F)F)cc2)nc(-c2cccc(F)c2)n1)C(O)CO (stereo not shown) [Example 79, N-(3,4-dihydroxybutan-2-yl)-2-(3-fluorophenyl)-6-[4-(trifluoromethoxy)phenyl]pyrimidine-4-carboxamide] |
| 13.3 nM | 5.88 | C[C@H](CO)NC(=O)c1cc(-c2ccc(Cl)cc2)nc(-c2cccc(F)c2)n1 [Example 2, 6-(4-Chlorophenyl)-2-(3-fluorophenyl)-N-[(2R)-1-hydroxypropan-2-yl]pyrimidine-4-carboxamide] |
